Test results as given in the NIST ThermoML archive (doi:10.1021/je300526w).

Experiment: xn = mol fraction of the nth substance listed
Settings: Liquid, Vibrating tube method

CCCCCCCCCCCCCCCCCC [octadecane] + CCCCCCCCCC
mass density [kg/m3]
Settings	1000 kPa	2000 kPa	3000 kPa	4000 kPa	5000 kPa	6000 kPa	7000 kPa	8000 kPa	9000 kPa	10000 kPa
295.1 K, x2 = 0.5	759.7	760.4	761.1	761.7	762.4	763.1	763.7	764.4	765.1	765.8
295.2 K, x2 = 0.75	745.7	746.4	747.1	747.9	748.6	749.3	750	750.7	751.4	752.1
295.8 K, x2 = 0.9	733.9	734.7	735.4	736.2	736.9	737.6	738.4	739.1	739.9	740.6
